# Source: patent US20260285850A1, “SUBSTITUTED OXAZOLIDINONES AND IMIDAZOLINONES AS HERBICIDES” (FMC CORPORATION, priority 2023, published 2026)
# Experiments:
# Type in all cases: in vivo
# [1] = tested on: green foxtail (Setaria viridis); test: Test A preemergence soil spray, visual injury rating 0-100; conditions: 10 days, 0 = no effect, 100 = complete control
# Method in brief: (§1)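 Plants were grown in a loam soil-sand blend and treated with test chemical in a non-phytotoxic solvent mixture containing surfactant, either sprayed on soil preemergence or applied postemergence to 2-10 cm plants. After 10 days in a greenhouse, injury was scored visually against untreated controls, 0 meaning no effect and 100 complete control.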
# [2] = tested on: oat, wild (wild oat, Avena fatua); test: as above; conditions: 10 days, 0 = no effect, 100 = complete control
# Method in brief: as §1
# [3] = tested on: ragweed (common ragweed, Ambrosia artemisiifolia); test: as above; conditions: 10 days, 0 = no effect, 100 = complete control
# Method in brief: as §1
# kochia (Bassia scoparia) [4] = test: as above; conditions: 10 days, 0 = no effect, 100 = complete control
# Method in brief: as §1
# corn (Zea mays) [5] = test: as above; conditions: 10 days, 0 = no effect, 100 = complete control
# Method in brief: as §1
# [6] = tested on: ryegrass, Italian (italian ryegrass, Lolium multiflorum); test: as above; conditions: 10 days, 0 = no effect, 100 = complete control
# Method in brief: as §1
# [7] = tested on: wheat (Triticum aestivum); test: as above; conditions: 10 days, 0 = no effect, 100 = complete control
# Method in brief: as §1
# [8] = tested on: palmer (palmer amaranth, palmer pigweed, Amaranthus palmeri); test: as above; conditions: 10 days, 0 = no effect, 100 = complete control
# Method in brief: as §1
# soybean (Glycine max) [9] = test: as above; conditions: 10 days, 0 = no effect, 100 = complete control
# Method in brief: as §1
# [10] = tested on: barnyardgrass (Echinochloa crus-galli); test: as above; conditions: 10 days, 0 = no effect, 100 = complete control
# Method in brief: as §1
# [11] = tested on: blackgrass (Alopecurus myosuroides); test: as above; conditions: 10 days, 0 = no effect, 100 = complete control
# Method in brief: as §1
# [12] = tested on: green foxtail (Setaria viridis); test: Test A postemergence application, visual injury rating 0-100; conditions: 10 days
# Method in brief: as §1
# [13] = tested on: oat, wild (wild oat, Avena fatua); test: as above; conditions: 10 days
# Method in brief: as §1
# [14] = tested on: ragweed (common ragweed, Ambrosia artemisiifolia); test: as above; conditions: 10 days
# Method in brief: as §1
# kochia (Bassia scoparia) [15] = test: as above; conditions: 10 days
# Method in brief: as §1
# corn (Zea mays) [16] = test: as above; conditions: 10 days
# Method in brief: as §1
# [17] = tested on: ryegrass, Italian (italian ryegrass, Lolium multiflorum); test: as above; conditions: 10 days
# Method in brief: as §1
# [18] = tested on: wheat (Triticum aestivum); test: as above; conditions: 10 days
# Method in brief: as §1
# [19] = tested on: horseweed (Erigeron canadensis); test: as above; conditions: 10 days
# Method in brief: as §1
# [20] = tested on: palmer (palmer amaranth, palmer pigweed, Amaranthus palmeri); test: as above; conditions: 10 days
# Method in brief: as §1
# soybean (Glycine max) [21] = test: as above; conditions: 10 days
# Method in brief: as §1
# [22] = tested on: barnyardgrass (Echinochloa crus-galli); test: as above; conditions: 10 days
# Method in brief: as §1
# [23] = tested on: galium (catchweed bedstraw, Galium aparine); test: as above; conditions: 10 days
# Method in brief: as §1
# [24] = tested on: blackgrass (Alopecurus myosuroides); test: as above; conditions: 10 days
# Method in brief: as §1
# [25] = tested on: barnyardgrass (Echinochloa crusgalli); test: Test B flooded paddy test, visual plant response rating 0-100; conditions: 250 g ai/ha, Flood, applied to paddy water, evaluated after 13 days
# Method in brief: (§2)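 In this flooded assay, 2-leaf seedlings received compound through the water layer, kept at 3 cm over the soil. Plants were held 13 days in a greenhouse and then visually compared with control pots.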
# rice (Oryza sativa) = test: as above; conditions: 250 g ai/ha, Flood, applied to paddy water, evaluated after 13 days
# Method in brief: as §2
# [26] = tested on: ducksalad (Heteranthera limosa); test: as above; conditions: 250 g ai/ha, Flood, applied to paddy water, evaluated after 13 days
# Method in brief: as §2
# [27] = tested on: sedge, umbrella (small-flower umbrella sedge, Cyperus difformis); test: as above; conditions: 250 g ai/ha, Flood, applied to paddy water, evaluated after 13 days
# Method in brief: as §2
# [28] = 31 g ai/ha, postemergence, 0 = no effect, 100 = complete control
# [29] = Postemergence, 125 g ai/ha, 0 is no effect, 100 is complete control
structure (smiles),measurement,setting,value
"COC(=O)C1=CCC(NC(=O)C2(C)CN(c3cc(F)cc(F)c3)C(=O)O2)C1 (single isomer, unassigned) [Compound 20]","Foxtail, Green plant response rating (0-100)",[1]; 31 g ai/ha,0
same,"Foxtail, Green plant response rating (0 to 100 scale)",[1]; 125 g ai/ha,0
same,"Oat, Wild plant response rating (0-100)",[2]; 31 g ai/ha,0
same,"Oat, Wild plant response rating (0 to 100 scale)",[2]; 125 g ai/ha,0
same,Ragweed plant response rating (0-100),[3]; 31 g ai/ha,30
same,Ragweed plant response rating (0 to 100 scale),[3]; 125 g ai/ha,0
same,Kochia plant response rating (0-100),kochia (Bassia scoparia) [4]; 31 g ai/ha,0
same,Kochia plant response rating (0 to 100 scale),kochia (Bassia scoparia) [4]; 125 g ai/ha,0
same,Corn plant response rating (0-100),corn (Zea mays) [5]; 31 g ai/ha,0
same,Corn plant response rating (0 to 100 scale),corn (Zea mays) [5]; 125 g ai/ha,0
same,"Ryegrass, Italian plant response rating (0-100)",[6]; 31 g ai/ha,0
same,"Ryegrass, Italian plant response rating (0 to 100 scale)",[6]; 125 g ai/ha,20
same,Wheat plant response rating (0-100),[7]; 31 g ai/ha,0
same,Wheat plant response rating (0 to 100 scale),[7]; 125 g ai/ha,20
same,"Amaranth, Palmer plant response rating (0-100)",[8]; 31 g ai/ha,0
same,"Amaranth, Palmer plant response rating (0 to 100 scale)",[8]; 125 g ai/ha,0
same,Soybean plant response rating (0-100),soybean (Glycine max) [9]; 31 g ai/ha,20
same,Soybean plant response rating (0 to 100 scale),soybean (Glycine max) [9]; 125 g ai/ha,60
same,Barnyardgrass plant response rating (0-100),[10]; 31 g ai/ha,0
same,Barnyardgrass plant response rating (0 to 100 scale),[10]; 125 g ai/ha,0
same,Blackgrass plant response rating (0-100),[11]; 31 g ai/ha,0
same,Blackgrass plant response rating (0 to 100 scale),[11]; 125 g ai/ha,0
same,"Foxtail, Green plant response rating (0-100)",[12]; [28],20
same,"Foxtail, Green plant response rating (0 to 100 scale)",[12]; [29],80
same,"Oat, Wild plant response rating (0-100)",[13]; [28],20
same,"Oat, Wild plant response rating (0 to 100 scale)",[13]; [29],60
same,Ragweed plant response rating (0-100),[14]; [28],0
same,Ragweed plant response rating (0 to 100 scale),[14]; [29],30
same,Kochia plant response rating (0-100),kochia (Bassia scoparia) [15]; [28],0
same,Kochia plant response rating (0 to 100 scale),kochia (Bassia scoparia) [15]; [29],50
same,Corn plant response rating (0-100),corn (Zea mays) [16]; [28],40
same,Corn plant response rating (0 to 100 scale),corn (Zea mays) [16]; [29],100
same,"Ryegrass, Italian plant response rating (0-100)",[17]; [28],0
same,"Ryegrass, Italian plant response rating (0 to 100 scale)",[17]; [29],80
same,Wheat plant response rating (0-100),[18]; [28],0
same,Wheat plant response rating (0 to 100 scale),[18]; [29],80
same,Horseweed plant response rating (0-100),[19]; [28],0
same,Horseweed plant response rating (0 to 100 scale),[19]; [29],0
same,"Amaranth, Palmer plant response rating (0-100)",[20]; [28],0
same,"Amaranth, Palmer / Pigweed, Palmer plant response rating (0 to 100 scale)",[20]; [29],30
same,Soybean plant response rating (0-100),soybean (Glycine max) [21]; [28],50
same,Soybean plant response rating (0 to 100 scale),soybean (Glycine max) [21]; [29],90
same,Barnyardgrass plant response rating (0-100),[22]; [28],0
same,Barnyardgrass plant response rating (0 to 100 scale),[22]; [29],90
same,Galium plant response rating (0-100),[23]; [28],20
same,Galium plant response rating (0 to 100 scale),[23]; [29],80
same,Blackgrass plant response rating (0-100),[24]; [28],0
same,Blackgrass plant response rating (0 to 100 scale),[24]; [29],60
same,"Plant response rating, Barnyardgrass (0 to 100 scale, 0 is no effect and 100 is complete control)",[25],0
same,"Plant response rating, Rice (0 to 100 scale, 0 is no effect and 100 is complete control)",rice (Oryza sativa),0
same,"Plant response rating, Ducksalad (0 to 100 scale, 0 is no effect and 100 is complete control)",[26],0
same,"Plant response rating, Sedge, Umbrella (0 to 100 scale, 0 is no effect and 100 is complete control)",[27],0
